Columns and labels:
PD-1/PD-L1 = PD-1/PD-L1 (Homo sapiens, UniProt Q9NZQ7); assay: PD-1/PD-L1 biochemical protein-protein interaction assay (ALPHA); type: binding; conditions: 0.3 nM His tagged PD-L1, 2.5 nM biotinylated Fc-PD-1, 60 minutes at 25° C., read-out: IC50 PD-L1-PD-1 Alpha IC50-mono PD-L1-fcP-D1
Outline: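 ALPHA bead proximity assay of extracellular domains: 0.3 nM His-PD-L1 with 2.5 nM biotinylated Fc-PD-1 in 25 mM Hepes pH 7.4, 150 mM NaCl, 3.4 mM EDTA, 0.005% Tween 20, 0.01% BSA, 60 min at 25 °C. Anti-His acceptor and streptavidin donor beads added; IC50 from four-parameter fit of signal loss.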

PD-L1 = molecular target: T1, PD-L1 (Homo sapiens, UniProt Q9NZQ7); assay: PD-L1/PD-L1 dimerization biochemical protein-protein interaction assay (ALPHA); type: binding; conditions: compound-induced PD-L1 dimerization, head prints '1 nM' (0.5 nM His-tagged PD-L1 and 0.5 nM FLAG-tagged PD-L1), read-out: AC50 PDL1 Dimer Alpha 1 nM
T1 construct: determine if they can specifically dimerize the extracellular domains of PD-L1
Description: PD-L1/PD-L1 Dimerization Biochemical Protein-Protein Interaction Assay:
Compounds were tested in biochemical protein-protein interaction assays to determine if they can specifically dimerize the extracellular domains of PD-L1. Dimerization of the proteins (His-tagged PD-L1 and FLAG-tagged PD-L1) is measured using a bead based Amplified Luminescent Proximity Homogeneous Assay (ALPHA) platform. […] Assays are performed in 25 mM Hepes (pH 7.4), 150 mM NaCl, 3.4 mM EDTA, 0.005% Tween 20, and 0.01% BSA. Final protein concentration in the assays were 0.5 nM (His tagged PD-L) and 0.5 nM (FLAG tagged PD-L1). After an assay reaction time of 2 hours at 25° C., 20 μg/mL (final assay concentration) ALPHA assay acceptor beads (anti-His coated) were added and incubated for 60 minutes at 25° C. Binding was measured following a final 60 minute incubation with 40 μg/mL (final assay concentration) ALPHA assay donor beads (anti-FLAG coated). AC50 values were calculated from the fit of the dose-response curves to a four-parameter equation (Table 3).

PD-1/PD-L1 interaction = molecular target: T2, PD-1/PD-L1 interaction (Homo sapiens, UniProt Q9NZQ7); assay: PD-1/PD-L1 NFAT reporter co-culture assay; type: cell-based; conditions: Jurkat PD-1 NFAT-luciferase cells co-cultured with aAPC-PD-L1 CHO cells, 6 hrs at 37° C.; read-out: EC50 NFAT Luciferase
T2 construct: expressed in transfected cells; host or cells: CHO cells (aAPC-PD-L1) co-cultured with Jurkat cells overexpressing PD-1 and an NFAT-luciferase reporter
Outline: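 CHO aAPC-PD-L1 seeded overnight; PD-1/NFAT-luc Jurkat + cpd in RPMI 1640, 2% FBS added at once; 6 h, 37 °C; ONE-Glo luminescence; EC50, 4-parameter fit.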

T1 sequence (Q9NZQ7 19-238 limits assumed): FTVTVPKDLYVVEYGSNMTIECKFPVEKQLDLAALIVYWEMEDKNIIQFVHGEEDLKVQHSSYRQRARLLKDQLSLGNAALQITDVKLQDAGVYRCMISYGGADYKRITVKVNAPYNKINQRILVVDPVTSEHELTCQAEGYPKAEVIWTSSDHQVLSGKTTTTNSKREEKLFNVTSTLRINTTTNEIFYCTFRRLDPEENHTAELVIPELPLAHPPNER
T1 sequence (Q9NZQ7 19-238 limits assumed): as above
Chain of PD-1/PD-L1 (Q9NZQ7 19-238 limits assumed): as above
T2 sequence (Q9NZQ7 19-290): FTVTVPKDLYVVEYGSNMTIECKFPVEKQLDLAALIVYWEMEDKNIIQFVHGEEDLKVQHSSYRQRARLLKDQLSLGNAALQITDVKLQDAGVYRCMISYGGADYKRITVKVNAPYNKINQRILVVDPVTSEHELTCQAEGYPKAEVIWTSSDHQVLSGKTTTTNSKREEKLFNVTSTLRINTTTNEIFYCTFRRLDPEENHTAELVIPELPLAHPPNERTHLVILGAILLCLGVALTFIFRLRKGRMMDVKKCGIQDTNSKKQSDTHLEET

Compound `COc1cc(-c2cccc(-c3cccc(COc4nc(OC)c(CN5CC6(C5)CN(C(C)=O)C6)cc4Br)c3Cl)c2Cl)ccc1CN1CC2(C1)CN(C(C)=O)C2` [Example 425] has an IC50 (PD-1/PD-L1) of 0.755 nM, an AC50 (PD-L1) of 226 nM and an EC50 (PD-1/PD-L1 interaction) of 544 nM.

Compound `Cc1c(COc2cc(OCc3cncc(C#N)c3)c(CN[C@@](C)(CO)C(=O)O)cc2Cl)cccc1-c1cccc(-c2ccc(CNCCn3ccnn3)cc2)c1C` [Example 580] has an IC50 (PD-1/PD-L1) of 0.215 nM, an AC50 (PD-L1) of 231 nM and an EC50 (PD-1/PD-L1 interaction) of 200 nM.

`Cc1c(COc2cc(OCc3cncc(C#N)c3)c(CN[C@@](C)(CO)C(=O)O)cc2Cl)cccc1-c1cccc(-c2ccc(OCCNCCO)c(C(=O)NC3CC3)c2)c1C` [Example 459] was tested, and the IC50 (PD-1/PD-L1) was 0.064 nM, the AC50 (PD-L1) was 89.9 nM and the EC50 (PD-1/PD-L1 interaction) was 1200 nM.

Work on `COc1nc(-c2cccc(-c3cccc(-c4ccc5ncc(CN6CC7(CCC(=O)N7)C6)n5c4)c3Cl)c2Cl)ccc1CN1CC2(CCC(=O)N2)C1` [Example 614] yielded an IC50 (PD-1/PD-L1) of 11.5 nM, an AC50 (PD-L1) of at least 10000 nM and an EC50 (PD-1/PD-L1 interaction) of at least 50000 nM.

Work on `COc1nc(-c2cccc(-c3cccc(COc4nc(OCc5cncc(C#N)c5)c(CN5CCCC[C@H]5C(=O)O)cc4Br)c3Cl)c2Cl)ccc1C1=NCCN1` [Example 543] yielded an IC50 (PD-1/PD-L1) of 0.07 nM, an AC50 (PD-L1) of 49.7 nM and an EC50 (PD-1/PD-L1 interaction) of 187 nM.

With `COc1nc(O[C@H]2CCc3c(-c4cccc(-c5ccc(C6=N[C@@H](C)CN6)c(OC)n5)c4Cl)cccc32)c(Br)cc1CN[C@@](C)(CO)C(=O)O` [Example 781] the IC50 (PD-1/PD-L1) was 0.064 nM, the AC50 (PD-L1) was 23.3 nM and the EC50 (PD-1/PD-L1 interaction) was 34 nM.

Compound `Cc1c(COc2cc(OCc3cncc(C#N)c3)c(CNC[C@@H](O)CC(=O)O)cc2Cl)cccc1-c1cccc(-c2ccc3c(CNC[C@@H](O)CC(=O)O)ccnc3c2)c1C` [Example 569] has an IC50 (PD-1/PD-L1) of 0.085 nM, an AC50 (PD-L1) of 128 nM and an EC50 (PD-1/PD-L1 interaction) of 74 nM.

In the case of `Cc1c(COc2cc(OCc3cncc(C#N)c3)c(CN[C@@](C)(CO)C(=O)O)cc2Cl)cccc1-c1cccc(-c2ccc(CNCCCS(N)(=O)=O)cc2)c1C` [Example 570], the IC50 (PD-1/PD-L1) is reported as 0.092 nM, the AC50 (PD-L1) is reported as 56.5 nM and the EC50 (PD-1/PD-L1 interaction) is reported as 115 nM.

Compound `CNC(=O)c1cc(-c2cccc(-c3cccc(COc4cc(OCc5cncc(C#N)c5)c(CNC[C@@H](O)CC(=O)O)cc4Cl)c3C)c2C)ccc1OCCNCCO` [Example 458] has an IC50 (PD-1/PD-L1) of 0.325 nM, an AC50 (PD-L1) of 139 nM and an EC50 (PD-1/PD-L1 interaction) of 429 nM.

Work on `Cc1c(COc2cc(OCc3cncc(C#N)c3)c(CNC(C)(CO)C(=O)O)cc2Cl)cccc1-c1cccc(-c2ccc(CN3CCC4(CNC(=O)C4)C3)cc2)c1C` (stereo not drawn) [Example 444] yielded an IC50 (PD-1/PD-L1) of 0.064 nM, an AC50 (PD-L1) of 133 nM and an EC50 (PD-1/PD-L1 interaction) of 296 nM.

In the case of `COc1nc(-c2cccc(-c3cccc4c3CC[C@@H]4Oc3nc(OC)c(CN[C@@](C)(CO)C(=O)O)cc3Br)c2Br)ccc1CNC[C@@H]1CCC(=O)N1` [Example 697], the IC50 (PD-1/PD-L1) is reported as 0.068 nM, the AC50 (PD-L1) is reported as 51 nM and the EC50 (PD-1/PD-L1 interaction) is reported as 50 nM.

Work on `Cc1c(COc2cc(OCc3cncc(C#N)c3)c(CN[C@@H]3CCC[C@@H]3O)cc2Cl)cccc1-c1cccc(-c2ccc3c(c2)CCC3N2CC3(CC(C(=O)O)C3)C2)c1C` (stereo partly drawn) [Example 583] yielded an IC50 (PD-1/PD-L1) of 0.296 nM, an AC50 (PD-L1) of 38.3 nM and an EC50 (PD-1/PD-L1 interaction) of 180 nM.

`COc1nc(O[C@H]2CCc3c(-c4cccc(-c5ccc(CNC[C@@H]6CCC(=O)N6)c(OCC#N)c5)c4Cl)cccc32)c(Cl)cc1CNC[C@@H](O)CC(=O)O` [Example 654] gave an IC50 (PD-1/PD-L1) of 0.09 nM, an AC50 (PD-L1) of 10.9 nM and an EC50 (PD-1/PD-L1 interaction) of 27 nM.

`COc1nc(-c2cccc(-c3cccc(COc4nc(OCc5cncc(C#N)c5)c(CNC[C@@H]5CCC(=O)N5)cc4Br)c3Cl)c2Cl)ccc1C1=NCCN1` [Example 556] gave an IC50 (PD-1/PD-L1) of 0.194 nM, an AC50 (PD-L1) of 37.7 nM and an EC50 (PD-1/PD-L1 interaction) of 86 nM.

With `COc1nc(O[C@H]2CCc3c(-c4cccc(-c5ccc(CNC[C@@H]6CCC(=O)N6)cc5)c4Cl)cccc32)c(Cl)cc1CN1CCC[C@H](C(=O)O)C1` [Example 719] the IC50 (PD-1/PD-L1) was 0.064 nM, the AC50 (PD-L1) was 32.7 nM and the EC50 (PD-1/PD-L1 interaction) was 110 nM.

In the case of `N#Cc1cncc(COc2nc(O[C@H]3CCc4c(-c5cccc(-c6ccc(OCCNCCO)cc6)c5Cl)cccc43)ccc2CNC[C@@H](O)CC(=O)O)c1` [Example 661], the IC50 (PD-1/PD-L1) is reported as 0.256 nM, the AC50 (PD-L1) is reported as 126 nM and the EC50 (PD-1/PD-L1 interaction) is reported as 159 nM.

`COc1nc(-c2cccc(-c3cccc(-c4ccc5c(c4)[C@H](O)C[C@@H]5N)c3Cl)c2Cl)ccc1CNC[C@@H]1CCC(=O)N1` [Example 611] was tested, and the IC50 (PD-1/PD-L1) was 0.482 nM, the AC50 (PD-L1) was 408 nM and the EC50 (PD-1/PD-L1 interaction) was 223 nM.

Work on `Cc1c(COc2cc(OCc3cncc(C#N)c3)c(CN[C@](C)(CO)C(=O)O)cc2Cl)cccc1-c1cccc(-c2ccc(OC3CN4CCC3CC4)cc2)c1C` (stereo partly drawn) [Example 302, (2R)-2-((5-chloro-2-((5-cyanopyridin-3-yl)methoxy)-4-((2,2′-dimethyl-4″-(quinuclidin-3-yloxy)-[1,1′:3′,1″-terphenyl]-3-yl)methoxy)benzyl)amino)-3-hydroxy-2-methylpropanoic acid] yielded an IC50 (PD-1/PD-L1) of 0.348 nM, an AC50 (PD-L1) of 76.2 nM and an EC50 (PD-1/PD-L1 interaction) of 283 nM.

With `CN1CCCC1c1ccc(-c2cccc(-c3cccc4c3CC[C@@H]4Oc3nc(OCc4cncc(C#N)c4)c(CNCCO)cc3Cl)c2Cl)cc1` (stereo partly drawn) [Example 670] the IC50 (PD-1/PD-L1) was 1.74 nM, the AC50 (PD-L1) was 74.8 nM and the EC50 (PD-1/PD-L1 interaction) was at least 50000 nM.

Work on `Cc1c(COc2cc(OCc3cncc(C#N)c3)c(CNC[C@@H](O)CC(=O)O)cc2Cl)cccc1-c1cccc(-c2ccc3c(CNC[C@H]4CCC(=O)N4)ccnc3c2)c1C` [Example 437] yielded an IC50 (PD-1/PD-L1) of 1.61 nM, an AC50 (PD-L1) of 477 nM and an EC50 (PD-1/PD-L1 interaction) of 476 nM.

For `COc1nc(-c2cccc(-c3cccc4c3CC[C@@H]4Oc3nc(OC)c(CN4CCCC(C)(C(=O)O)C4)cc3Cl)c2Cl)ccc1CNC[C@@H]1CCC(=O)N1` (stereo partly drawn) [Example 761], the IC50 (PD-1/PD-L1) was 0.064 nM, the AC50 (PD-L1) was 13.2 nM and the EC50 (PD-1/PD-L1 interaction) was 10 nM.

`N#CCOc1cc(-c2cccc(-c3cccc(-c4ccc(CNC[C@@H]5CCC(=O)N5)c(OCC#N)c4)c3Cl)c2Cl)ccc1CNC[C@@H]1CCC(=O)N1` [Example 463] gave an IC50 (PD-1/PD-L1) of 0.159 nM, an AC50 (PD-L1) of 71.3 nM and an EC50 (PD-1/PD-L1 interaction) of 123 nM.

Compound `CS(=O)(=O)c1cncc(COc2nc(O[C@H]3CCc4c(-c5cccc6c5CC[C@@H]6Oc5nc(OCc6cncc(S(C)(=O)=O)c6)c(CN6CC[C@@H](O)C6)cc5Cl)cccc43)c(Cl)cc2CN2CC[C@@H](O)C2)c1` [Example 689] has an IC50 (PD-1/PD-L1) of 0.064 nM, an AC50 (PD-L1) of 114 nM and an EC50 (PD-1/PD-L1 interaction) of 139 nM.

`Cc1c(COc2cc(OCc3cncc(C#N)c3)c(CNC[C@@H](O)CC(=O)O)cc2Cl)cccc1-c1cccc(OCc2cc(OCc3cncc(C#N)c3)c(CNC[C@@H](O)CC(=O)O)cc2Cl)c1C` [Example 390, (S)-4-((4-((3′-((4-((((S)-3-carboxy-2-hydroxypropyl)amino)methyl)-2-chloro-5-((5-cyanopyridin-3-yl)methoxy)benzyl)oxy)-2,2′-dimethyl-[1,1′-biphenyl]-3-yl)methoxy)-5-chloro-2-((5-cyanopyridin-3-yl)methoxy)benzyl)amino)-3-hydroxybutanoic acid] showed an IC50 (PD-1/PD-L1) of 0.324 nM, an AC50 (PD-L1) of 97.5 nM and an EC50 (PD-1/PD-L1 interaction) of 120 nM.

With `C[C@@](CO)(NCc1ccc(O[C@H]2CCc3c(-c4cccc(-c5ccc(C6=NCCN6)cc5)c4Cl)cccc32)nc1OCc1cncc(C#N)c1)C(=O)O` [Example 740] the IC50 (PD-1/PD-L1) was 0.064 nM, the AC50 (PD-L1) was 53.6 nM and the EC50 (PD-1/PD-L1 interaction) was 288 nM.

`Cc1c(COc2cc(OCc3cncc(C#N)c3)c(CNC[C@@H](O)CC(=O)O)cc2Cl)cccc1-c1cccc(-c2ccc(OCCNC[C@@H](O)CC(=O)O)c(C(N)=O)c2)c1C` [Example 312, (S)-4-((2-((3-carbamoyl-3″-((4-((((S)-3-carboxy-2-hydroxypropyl)amino)methyl)-2-chloro-5-((5-cyanopyridin-3-yl)methoxy)phenoxy)methyl)-2′,2″-dimethyl-[1,1′:3′,1″-terphenyl]-4-yl)oxy)ethyl)amino)-3-hydroxybutanoic acid] gave an IC50 (PD-1/PD-L1) of 0.051 nM, an AC50 (PD-L1) of 144 nM and an EC50 (PD-1/PD-L1 interaction) of 97 nM.

Reference: US12590062B2, “PD-1/PD-L1 inhibitors” (Gilead Sciences, Inc., priority 2017, dated 2026)
